Target: T1, human orexin type 2 receptor (hOX2R) (Homo sapiens, UniProt O43614)
T1 construct: expressed in transfected cells
T1 sequence (O43614 1-444): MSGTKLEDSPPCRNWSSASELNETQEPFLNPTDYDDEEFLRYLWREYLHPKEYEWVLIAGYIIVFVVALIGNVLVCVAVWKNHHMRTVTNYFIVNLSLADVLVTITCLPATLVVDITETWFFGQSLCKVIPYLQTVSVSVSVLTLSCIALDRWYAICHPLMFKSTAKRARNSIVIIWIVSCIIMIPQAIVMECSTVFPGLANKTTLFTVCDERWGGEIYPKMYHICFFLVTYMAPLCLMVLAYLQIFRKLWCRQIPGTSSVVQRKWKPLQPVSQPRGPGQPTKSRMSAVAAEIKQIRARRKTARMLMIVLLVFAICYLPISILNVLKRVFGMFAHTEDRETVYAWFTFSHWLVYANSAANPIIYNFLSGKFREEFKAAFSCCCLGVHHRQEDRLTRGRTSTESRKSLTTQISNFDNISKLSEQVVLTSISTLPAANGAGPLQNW
Test: Measurement of orexin type 2 receptor agonist activity (FLIPR calcium fluorescence)
Type: cell-based
Conditions: CHO cells expressing hOX2R, FLIPR calcium fluorescence; for EC50: read-out: hOx2 pEC50 (converted); for Emax: CHO, read-out: hOx2 Emax (%)
Experimental: The biological activity of the compounds of the present disclosure may be determined in cells stably expressing either orexin type 2 or orexin type 1 receptor. […] The agonist activity of a compound of the present disclosure may be determined by fluorescence value.
Stable cell line generation.
Measurement of orexin type 2 receptor agonist activity. […] As used herein, E. indicates the value at 10 μM concentration when orexin A is converted to a full agonist (maximum value of agonist activity. 100%).

Compound | EC50 [nM] | Emax [%]
N#CC1(C(=O)N2CC3(CC3)[C@H](NS(=O)(=O)C(F)F)[C@@H]2Cc2cccc(-c3cc(F)cc(F)c3)c2F)CCC1 [Compound 381, N-((6S,7S)-5-(1-cyanocyclobutane-1-carbonyl)-6-((2,3′,5′-trifluoro-[1,1′-biphenyl]-3-yl)methyl)-5-azaspiro[2.4]heptan-7-yl)-1,1-difluoromethanesulfonamide] | 1 to 10 | 90 to 100
[2H]c1c([2H])c([2H])c(-c2cccc(C[C@H]3[C@@H](NS(=O)(=O)CF)C4(CC4)CN3C(=O)[C@H]3CCO3)c2F)c([2H])c1[2H] [Compound 365, 1-fluoro-N-((6S,7S)-6-((2-fluoro-[1,1′-biphenyl]-3-yl-2′,3′,4′,5′,6′-d5)methyl)-5-((R)-oxetane-2-carbonyl)-5-azaspiro[2.4]heptan-7-yl)methanesulfonamide] | 1 to 10 | 90 to 100
CS(=O)(=O)NC1C(Cc2cccc(-c3ccccc3)c2)N(C(=O)N2CC(F)(F)C2)CC12CC2 (racemic) [Compound 10, N-(6-([1,1′-biphenyl]-3-ylmethyl)-5-(3,3-difluoroazetidine-1-carbonyl)-5-azaspiro[2.4]heptan-7-yl)methanesulfonamide] | 100 to 1000 | 90 to 100
O=C(NCC(F)F)N1CC2(CC2)[C@H](NS(=O)(=O)C(F)F)[C@@H]1Cc1cccc(-c2cc(F)cc(F)c2)c1F [Compound 382, (6S,7S)-N-(2,2-difluoroethyl)-7-((difluoromethyl)sulfonamido)-6-((2,3′,5′-trifluoro-[1,1′-biphenyl]-3-yl)methyl)-5-azaspiro[2.4]heptane-5-carboxamide] | 0.0794 to 1 | 90 to 100
C[C@@H](F)C(=O)N1CC2(CC2)[C@H](NS(=O)(=O)CF)[C@@H]1Cc1cc(F)cc(-c2cccc(F)c2)c1F [Compound 394] | 0.0794 to 1 | 90 to 100
[2H]C([2H])([2H])Oc1c(C[C@H]2[C@@H](NS(=O)(=O)CF)C3(CC3)CN2C(=O)NC([2H])([2H])C([2H])([2H])[2H])cccc1-c1ccccc1 [Compound 397, (6S,7S)-N-(ethyl-d5)-7-((fluoromethyl)sulfonamido)-6-((2-(methoxy-d3)-[1,1′-biphenyl]-3-yl)methyl)-5-azaspiro[2.4]heptane-5-carboxamide] | 1 to 10 | 80 to 90
CC(C)(O)C(=O)N1CC2(CC2)[C@H](NS(=O)(=O)C2CC2)[C@@H]1Cc1cccc(-c2cc(F)cc(F)c2)c1F [Compound 230, N-((6S,7S)-5-(2-hydroxy-2-methylpropanoyl)-6-((2,3′,5′-trifluoro-[1,1′-biphenyl]-3-yl)methyl)-5-azaspiro[2.4]heptan-7-yl)cyclopropanesulfonamide] | 1 to 10 | 90 to 100
CS(=O)(=O)N[C@@H]1[C@H](Cc2cccc(-c3ccccc3)c2)N(C(=O)[C@H](O)C(F)F)CC12CC2 [Compound 70, N-((6S,7S)-6-([1,1′-biphenyl]-3-ylmethyl)-5-((S)-3,3-difluoro-2-hydroxypropanoyl)-5-azaspiro[2.4]heptan-7-yl)methanesulfonamide] | 1 to 10 | 90 to 100
C[C@@H](F)C(=O)N1CC2(CC2)[C@H](NS(=O)(=O)CF)[C@@H]1Cc1cccc(-c2cc(F)cc(F)c2)c1F [Compound 233, 1-fluoro-N-((6S,7S)-5-((R)-2-fluoropropanoyl)-6-((2,3′,5′-trifluoro-[1,1′-biphenyl]-3-yl)methyl)-5-azaspiro[2.4]heptan-7-yl)methanesulfonamide] | 10 to 100 | 80 to 90
COC1(C(=O)N2CC3(CC3)[C@H](NS(C)(=O)=O)[C@@H]2Cc2cccc(-c3ccccc3)c2)CC1 [Compound 60, N-((6S,7S)-6-([1,1′-biphenyl]-3-ylmethyl)-5-(1-methoxycyclopropane-1-carbonyl)-5-azaspiro[2.4]heptan-7-yl)methanesulfonamide] | 10 to 100 | 80 to 90
C[C@@H](C#N)C(=O)N1CC2(CC2)[C@H](NS(C)(=O)=O)[C@@H]1Cc1cccc(-c2ccccc2)c1 [Compound 309, N-((6S,7S)-6-([1,1′-biphenyl]-3-ylmethyl)-5-((S)-2-cyanopropanoyl)-5-azaspiro[2.4]heptan-7-yl)methanesulfonamide] | 10 to 100 | 90 to 100

Continued, values first:

EC50 [nM] | Emax [%] | Compound
10 to 100 | 90 to 100 | C[C@]1(NC(=O)N2CC3(CC3)[C@H](NS(C)(=O)=O)[C@@H]2Cc2cccc(-c3ccccc3)c2F)CCOC1 [Compound 320, (6S,7S)-6-((2-fluoro-[1,1′-biphenyl]-3-yl)methyl)-7-(methylsulfonamido)-N-((S)-3-methyltetrahydrofuran-3-yl)-5-azaspiro[2.4]heptane-5-carboxamide]
1 to 10 | 90 to 100 | O=C([C@H]1CCCO1)N1CC2(CC2)[C@H](NS(=O)(=O)CF)[C@@H]1Cc1cccc(-c2ccccc2)c1F [Compound 401, 1-fluoro-N-((6S,7S)-6-((2-fluoro-[1,1′-biphenyl]-3-yl)methyl)-5-((R)-tetrahydrofuran-2-carbonyl)-5-azaspiro[2.4]heptan-7-yl)methanesulfonamide]
10 to 100 | 90 to 100 | CN(C(=O)N1CC2(CC2)[C@H](NS(C)(=O)=O)[C@@H]1Cc1cccc(-c2ccccc2)c1F)[C@H]1CCOC1 [Compound 321, (6S,7S)-6-((2-fluoro-[1,1′-biphenyl]-3-yl)methyl)-N-methyl-7-(methylsulfonamido)-N-((S)-tetrahydrofuran-3-yl)-5-azaspiro[2.4]heptane-5-carboxamide]
0.0794 to 1 | 90 to 100 | CN(C)S(=O)(=O)N[C@@H]1[C@H](Cc2cccc(-c3ccccc3)c2F)N(C(=O)[C@H]2CCO2)CC12CC2 [Compound 64, N-((6S,7S)-6-((2-fluoro-[1,1′-biphenyl]-3-yl)methyl)-5-((R)-oxetane-2-carbonyl)-5-azaspiro[2.4]heptan-7-yl)-N,N-dimethylsulfuric diamide]
1 to 10 | 90 to 100 | C[C@]1(C(=O)N2CC3(CC3)[C@H](NS(=O)(=O)CF)[C@@H]2Cc2cccc(-c3ccccc3)c2F)CCO1 [Compound 202, 1-fluoro-N-((6S,7S)-6-((2-fluoro-[1,1′-biphenyl]-3-yl)methyl)-5-((R)-2-methyloxetane-2-carbonyl)-5-azaspiro[2.4]heptan-7-yl)methanesulfonamide]
1 to 10 | 90 to 100 | COC[C@H](C)NC(=O)N1CC2(CC2)[C@H](NS(C)(=O)=O)[C@@H]1Cc1cccc(-c2ccccc2)c1F [Compound 328, (6S,7S)-6-((2-fluoro-[1,1′-biphenyl]-3-yl)methyl)-N-((S)-1-methoxypropan-2-yl)-7-(methylsulfonamido)-5-azaspiro[2.4]heptane-5-carboxamide]
0.0794 to 1 | 90 to 100 | CC1(CNC(=O)N2CC3(CC3)[C@H](NS(C)(=O)=O)[C@@H]2Cc2cccc(-c3ccccc3)c2F)COC1 [Compound 322, (6S,7S)-6-((2-fluoro-[1,1′-biphenyl]-3-yl)methyl)-N-((3-methyloxetan-3-yl)methyl)-7-(methylsulfonamido)-5-azaspiro[2.4]heptane-5-carboxamide]
1 to 10 | 90 to 100 | CC(C)C(=O)N1CC2(CC2)[C@H](NS(C)(=O)=O)[C@@H]1Cc1cccc(-c2ccccc2F)c1 (racemic) [Compound 297]
1 to 10 | 90 to 100 | COC[C@H](O)C(=O)N1CC2(CC2)[C@H](NS(=O)(=O)C(F)F)[C@@H]1Cc1cccc(-c2ccccc2)c1F [Compound 183, 1,1-difluoro-N-((6S,7S)-6-((2-fluoro-[1,1′-biphenyl]-3-yl)methyl)-5-((S)-2-hydroxy-3-methoxypropanoyl)-5-azaspiro[2.4]heptan-7-yl)methanesulfonamide]
1 to 10 | 90 to 100 | N#C[C@@]1(C(=O)N2CC3(CC3)[C@H](NS(=O)(=O)CF)[C@@H]2Cc2cccc(-c3ccccc3)c2F)CCO1 (single isomer, unassigned) [Compound 225]
0.0794 to 1 | 90 to 100 | C[C@@H](NC(=O)N1CC2(CC2)[C@H](NS(=O)(=O)CF)[C@@H]1Cc1cccc(-c2ccccc2)c1F)C(F)(F)F [Compound 209, (6S,7S)-6-((2-fluoro-[1,1′-biphenyl]-3-yl)methyl)-7-((fluoromethyl)sulfonamido)-N-((R)-1,1,1-trifluoropropan-2-yl)-5-azaspiro[2.4]heptane-5-carboxamide]
0.0794 to 1 | 90 to 100 | CN(C)S(=O)(=O)N[C@@H]1[C@H](Cc2cccc(-c3ccccc3)c2F)N(C(=O)N2CC(F)C2)CC12CC2 [Compound 117, N-((6S,7S)-6-((2-fluoro-[1,1′-biphenyl]-3-yl)methyl)-5-(3-fluoroazetidine-1-carbonyl)-5-azaspiro[2.4]heptan-7-yl)-N,N-dimethylsulfuric diamide]
1 to 10 | 90 to 100 | CS(=O)(=O)NC1C(Cc2cccc(-c3ccccc3)c2F)N(C(=O)[C@H]2C[C@H](F)C2)CC12CC2 (mixture of isomers) [Compound 90, N-(6-((2-fluoro-[1,1′-biphenyl]-3-yl)methyl)-5-((1r,3r)-3-fluorocyclobutane-1-carbonyl)-5-azaspiro[2.4]heptan-7-yl)methanesulfonamide]

— patent publication US12503475B2 (Centessa Pharmaceuticals (UK) Limited, priority 2020, dated 2025)
